{
  "source": "patent US20240060113A1",
  "about": "“PRESERVATION OF FETAL NUCLEIC ACIDS IN MATERNAL PLASMA” (STRECK LLC, priority 2009, published 2024)",
  "test_system": "non-human (lambda) DNA",
  "assay": "Lambda DNA spiked into plasma, stored at room temperature, Quantitative PCR (Example 2, FIG. 3)",
  "conditions": "plasma stored at room temperature 0 to 14 days",
  "method": "Blood samples from the same donor are drawn into two different types of blood collection tubes. One tube contains 500 g/L IDU, 81 g/L Tripotassium EDTA and 47 g/L glycine. The other tube contains only Heparin. All samples are centrifuged at 2100 g for 30 minutes at room temperature to separate the plasma. The plasma is then transferred to new tubes and non-human (lambda) DNA is then spiked into the plasma tubes. The spiked samples are then stored at room temperature for 0, 1, 2, 3, 4, 7, 11, and 14 days. Free circulating DNA is purified using the QIAamp® DNA Blood Mini Kit available from QIAGEN Inc. (Valencia, CA). DNA is extracted from each plasma sample. The samples are then amplified by Quantitative PCR (using iQ SYBR Green Supermix reagents available from BIO-RAD Laboratories (Hercules, California)) to identify the amount of lambda DNA present. […] The expected results of this example are shown in graphic format at FIG. 3. This example confirms that the compositions of the present invention are able to maintain the integrity and amount of DNA present in a blood sample.",
  "data": [
    {"substance": "Heparin", "values": [
      {"measurement": "relative percentage of lambda DNA present", "result": "decreases at every consecutive measurement"}
    ]}
  ]
}
